In US6933304B2, “Heteroarylalkanoic acids as integrin receptor antagonists” (Pharmacia Corporation, priority 2000, dated 2005):
pIC50: −log10 of the molar value. Where a name gives a salt, the structure may show the parent alone.

Tests used:
[1] = target: T1, αVβ3 integrin (293-β3 cells) (Homo sapiens, UniProt P05106+P06756); test: 293-β3 cell adhesion assay (adhesion to immobilized vitronectin); type: cell-based; conditions: 200 uM Mn2+, read-out: 293-β3 (IC50 <10 μM)
T1 construct: expressed in transfected cells; host or cells: 293 human embryonic kidney cells (293-β3)
T1 sequence (P06756 31-889 limits assumed): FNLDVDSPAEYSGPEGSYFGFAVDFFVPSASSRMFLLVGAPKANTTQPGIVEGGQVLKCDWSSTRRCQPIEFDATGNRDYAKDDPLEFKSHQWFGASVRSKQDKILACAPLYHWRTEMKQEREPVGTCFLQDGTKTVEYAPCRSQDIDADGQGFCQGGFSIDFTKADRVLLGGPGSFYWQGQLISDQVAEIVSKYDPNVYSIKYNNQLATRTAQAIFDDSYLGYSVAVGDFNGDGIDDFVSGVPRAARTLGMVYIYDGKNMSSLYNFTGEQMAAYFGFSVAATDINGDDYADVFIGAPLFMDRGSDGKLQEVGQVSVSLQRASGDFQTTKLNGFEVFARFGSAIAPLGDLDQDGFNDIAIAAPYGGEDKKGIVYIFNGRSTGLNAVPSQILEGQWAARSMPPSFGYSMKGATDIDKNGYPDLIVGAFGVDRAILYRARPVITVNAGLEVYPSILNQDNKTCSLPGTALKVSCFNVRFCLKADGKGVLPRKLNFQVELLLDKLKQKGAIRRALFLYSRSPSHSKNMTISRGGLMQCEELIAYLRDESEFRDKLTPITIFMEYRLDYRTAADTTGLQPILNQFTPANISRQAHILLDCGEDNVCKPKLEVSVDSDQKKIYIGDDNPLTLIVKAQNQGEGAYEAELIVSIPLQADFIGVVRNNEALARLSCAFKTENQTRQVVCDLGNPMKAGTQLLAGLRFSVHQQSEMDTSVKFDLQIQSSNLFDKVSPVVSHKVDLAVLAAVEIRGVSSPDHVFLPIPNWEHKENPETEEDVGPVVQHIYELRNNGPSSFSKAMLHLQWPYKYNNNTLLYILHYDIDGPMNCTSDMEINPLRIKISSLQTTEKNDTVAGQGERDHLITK
T1 sequence (P06756 891-1048 partner limits assumed): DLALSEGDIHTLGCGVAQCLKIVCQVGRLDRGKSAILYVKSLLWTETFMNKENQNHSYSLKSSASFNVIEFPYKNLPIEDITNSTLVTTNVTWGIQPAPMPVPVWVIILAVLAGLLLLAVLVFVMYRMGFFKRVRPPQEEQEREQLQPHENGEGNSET
T1 sequence (P05106 27-788): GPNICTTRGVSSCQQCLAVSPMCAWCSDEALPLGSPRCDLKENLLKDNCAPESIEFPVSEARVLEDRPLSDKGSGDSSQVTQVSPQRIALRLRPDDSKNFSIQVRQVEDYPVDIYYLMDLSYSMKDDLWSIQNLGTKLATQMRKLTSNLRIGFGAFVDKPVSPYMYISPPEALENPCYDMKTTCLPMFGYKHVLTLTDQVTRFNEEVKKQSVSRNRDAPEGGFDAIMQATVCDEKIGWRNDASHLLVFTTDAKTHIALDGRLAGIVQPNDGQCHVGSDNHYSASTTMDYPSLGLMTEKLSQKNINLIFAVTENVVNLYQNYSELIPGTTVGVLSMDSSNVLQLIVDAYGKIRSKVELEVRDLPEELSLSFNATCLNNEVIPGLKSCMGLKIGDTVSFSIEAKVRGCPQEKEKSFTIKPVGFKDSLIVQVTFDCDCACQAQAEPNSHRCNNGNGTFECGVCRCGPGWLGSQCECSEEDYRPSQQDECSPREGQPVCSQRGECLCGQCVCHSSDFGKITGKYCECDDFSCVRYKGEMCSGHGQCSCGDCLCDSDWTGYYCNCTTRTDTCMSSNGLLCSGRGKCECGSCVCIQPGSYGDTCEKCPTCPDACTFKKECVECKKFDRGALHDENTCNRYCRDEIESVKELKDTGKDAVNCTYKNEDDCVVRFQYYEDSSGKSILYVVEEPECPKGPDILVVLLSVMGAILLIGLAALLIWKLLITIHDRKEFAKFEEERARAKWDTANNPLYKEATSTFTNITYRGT
From the text: While the β3 subunit of αVβ3 is only known to complex with αV or αIIb, the αV subunit complexes with multiple β subunits. The three αV integrins most homologous with αVβ3 are αVβ1, αVβ5 and αVβ6, with 43%, 56% and 47% amino acid identity in the β subunits, respectively. To evaluate the selectivity of compounds between the integrins αVβ3 and αVβ6, cell-based assays were established using the 293 human embryonic kidney cell line. 293 cells express αVβ1, but little to no detectable αVβ3 or αVβ6. cDNAs for β3 and β6 were transfected separately into 293 cells to generate 293-β3 and 293-β6 cells, respectively. High surface expression of αVβ3 and αVβ6 was confirmed by flow cytometry. Conditions were established for each cell line in which cell adhesion to immobilized human vitronectin was mediated by the appropriate integrin, as determined by a panel of integrin-specific, neutralizing monoclonal antibodies. Briefly, cells were incubated with inhibitor in the presence of 200 uM Mn^2+, allowed to adhere to immobilized vitronectin, washed, and adherent cells are detected endogenous alkaline phosphatase and para-nitrophenyl phosphate. An 8-point dose-response curve using either 10-fold or 3-fold dilutions of compound was evaluated by fitting a four-parameter logistic, nonlinear model (using SAS).

[2] = target: T2, αVβ6 (HT-29 human colon carcinoma cells) (Homo sapiens, UniProt P06756+P18564); test: HT-29 cell adhesion assay (adhesion to immobilized LAP); type: cell-based; conditions: selectivity ratio: IC50 αVβ6 (HT-29) over IC50 β3
T2 construct: endogenous in cells; host or cells: HT-29 human colon carcinoma cells
T2 sequence (P06756 31-889 limits assumed): as the sequence (P06756 31-889 limits assumed) above
T2 sequence (P06756 891-1048 partner limits assumed): as the sequence (P06756 891-1048 partner limits assumed) above
T2 sequence (P18564 22-788): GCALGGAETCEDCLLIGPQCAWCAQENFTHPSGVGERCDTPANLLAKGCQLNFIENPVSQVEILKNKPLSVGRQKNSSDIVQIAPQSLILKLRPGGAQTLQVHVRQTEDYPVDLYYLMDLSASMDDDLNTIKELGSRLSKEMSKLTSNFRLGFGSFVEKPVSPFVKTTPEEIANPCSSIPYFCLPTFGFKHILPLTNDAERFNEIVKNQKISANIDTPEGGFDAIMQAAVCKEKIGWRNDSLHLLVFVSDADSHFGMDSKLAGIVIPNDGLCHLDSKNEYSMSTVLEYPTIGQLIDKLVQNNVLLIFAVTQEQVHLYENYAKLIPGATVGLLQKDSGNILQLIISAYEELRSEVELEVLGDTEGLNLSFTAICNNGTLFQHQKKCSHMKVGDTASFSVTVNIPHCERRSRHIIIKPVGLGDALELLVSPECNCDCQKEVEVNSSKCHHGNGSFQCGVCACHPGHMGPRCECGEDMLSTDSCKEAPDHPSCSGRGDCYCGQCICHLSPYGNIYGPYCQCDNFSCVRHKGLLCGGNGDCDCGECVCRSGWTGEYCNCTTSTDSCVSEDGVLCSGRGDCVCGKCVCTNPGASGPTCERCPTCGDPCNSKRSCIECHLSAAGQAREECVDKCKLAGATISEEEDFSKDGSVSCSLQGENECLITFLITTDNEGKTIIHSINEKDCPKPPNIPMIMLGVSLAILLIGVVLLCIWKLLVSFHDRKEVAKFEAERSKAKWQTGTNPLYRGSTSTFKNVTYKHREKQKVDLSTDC
Experimental: To evaluate compound potency for membrane-bound αVβ6 an additional cell-based adhesion assay was established using the HT-29 human colon carcinoma cell line. High surface expression of αVβ6 on HT-29 cells was confirmed by flow cytometry. Conditions were established in which cell adhesion to immobilized human latency associated peptide (LAP) was mediated by the αVβ6, as determined by a panel of integrin-specific, neutralizing monoclonal antibodies. Briefly, cells were incubated with inhibitor in the presence of 200 uM Mn^2+, allowed to adhere to immobilized LAP, washed, and adherent cells are detected by quantifying endogenous alkaline phosphatase using para-nitrophenyl phosphate. An 8-point dose-response curve using either 10-fold or 3-fold dilutions of compound was evaluated by fitting a four-parameter logistic, nonlinear model (using SAS). The compounds evaluated were relatively ineffective at inhibition of αVβ6-mediated cell adhesion. The selective antagonism of the αVβ3 integrin is viewed as desirable in this class of compounds, as αVβ6 may also play a role in normal physiological processes of tissue repair and cellular turnover that routinely occur in the skin and pulmonary tissues.

[3] = target: T3, Human fibrinogen receptor (IIb/IIIa) (Homo sapiens, UniProt P05106+P08514); test: Purified IIb/IIIa receptor assay (solid phase receptor assay, SPRA); type: binding; conditions: selectivity ratio: IC50 αIIbβ3 (solid phase receptor assay) over IC50 β3
T3 construct: Human fibrinogen receptor (IIb/IIIa) was purified from outdated platelets; from tissue; host or cells: outdated human platelets
T3 sequence (P08514 32-887 limits assumed): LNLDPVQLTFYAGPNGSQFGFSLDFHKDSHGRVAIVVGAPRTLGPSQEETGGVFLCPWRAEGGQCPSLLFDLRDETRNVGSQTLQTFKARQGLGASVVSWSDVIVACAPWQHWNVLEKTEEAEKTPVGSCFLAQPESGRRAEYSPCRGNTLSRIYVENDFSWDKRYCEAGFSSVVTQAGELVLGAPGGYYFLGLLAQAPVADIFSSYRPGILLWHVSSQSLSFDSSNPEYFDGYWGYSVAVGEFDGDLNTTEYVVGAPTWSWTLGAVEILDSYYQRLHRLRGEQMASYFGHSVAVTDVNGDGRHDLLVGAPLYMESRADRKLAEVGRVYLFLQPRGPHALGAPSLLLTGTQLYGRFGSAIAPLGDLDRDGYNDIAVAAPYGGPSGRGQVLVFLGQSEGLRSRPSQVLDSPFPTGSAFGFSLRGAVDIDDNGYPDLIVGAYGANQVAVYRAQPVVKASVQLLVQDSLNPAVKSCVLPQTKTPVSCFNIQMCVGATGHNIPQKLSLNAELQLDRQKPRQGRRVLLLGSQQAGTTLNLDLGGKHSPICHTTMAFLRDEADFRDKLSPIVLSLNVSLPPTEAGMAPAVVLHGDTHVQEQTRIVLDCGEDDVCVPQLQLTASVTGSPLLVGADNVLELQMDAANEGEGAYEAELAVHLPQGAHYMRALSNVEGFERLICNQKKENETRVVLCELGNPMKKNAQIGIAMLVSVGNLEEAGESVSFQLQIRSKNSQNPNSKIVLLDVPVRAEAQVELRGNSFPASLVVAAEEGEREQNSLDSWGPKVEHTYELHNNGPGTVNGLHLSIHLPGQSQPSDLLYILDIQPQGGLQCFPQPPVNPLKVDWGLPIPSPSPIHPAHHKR
T3 sequence (P08514 891-1039 partner limits assumed): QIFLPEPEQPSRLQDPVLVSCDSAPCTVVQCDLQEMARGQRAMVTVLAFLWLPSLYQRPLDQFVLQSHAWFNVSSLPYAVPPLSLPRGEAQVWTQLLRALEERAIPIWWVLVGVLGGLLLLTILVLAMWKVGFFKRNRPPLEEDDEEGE
T3 sequence (P05106 27-788): as the sequence (P05106 27-788) above
From the text: Human fibrinogen receptor (IIb/IIIa) was purified from outdated platelets. (Pytela, R., Pierschbacher, M. D., Argraves, S., Suzuki, S., and Rouslahti, E. “Arginine-Glycine-Aspartic acid adhesion receptors”, Methods in Enzymology 144(1987):475-489.) Human vitronectin was purified from fresh frozen plasma as described in Yatohgo, T., Izumi, M., Kashiwagi, H., and Hayashi, M., “Novel purification of vitronectin from human plasma by heparin affinity chromatography,” Cell Structure and Function 13(1988):281-292. Biotinylated human vitronectin was prepared by coupling NHS-biotin from Pierce Chemical Company (Rockford, IL) to purified vitronectin as previously described. (Charo, I. F., Nannizzi, L., Phillips, D. R., Hsu, M. A., Scarborough, R. M., “Inhibition of fibrinogen binding to GP IIb/IIIa by a GP IIIa peptide”, J. Biol. Chem. 266(3)(1991): 1415-1421.) Assay buffer, OPD substrate tablets, and RIA grade BSA were obtained from Sigma (St. Louis, Mo.). Anti-biotin antibody was obtained from Sigma (St. Louis, Mo.). Nalge Nunc-Immuno microtiter plates were obtained from (Rochester, N.Y.). ADP reagent was obtained from Sigma (St. Louis, Mo.).
This assay is essentially the same reported in Niiya, K., Hodson, E., Bader, R., Byers-Ward, V. Koziol, J. A., Plow, E. F. and Ruggeri, Z. M., “Increased surface expression of the membrane glycoprotein IIb/IIIa complex induced by platelet activation: Relationships to the binding of fibrinogen and platelet aggregation”, Blood 70(1987):475-483. The purified human fibrinogen receptor (IIb/IIIa) was diluted from stock solutions to 1.0 μg/mL in Tris-buffered saline containing 1.0 mM Ca^++, Mg^++, and Mn^++, pH 7.4 (TBS^+++). The diluted receptor was immediately transferred to Nalge Nunc-Immuno microtiter plates at 100 μL/well (100 ng receptor/well). The plates were sealed and incubated overnight at 4° C. to allow the receptors to bind to the wells. All remaining steps were at room temperature. The assay plates were emptied and 200 μL of 1% RIA grade BSA in TBS^+++ (TBS^+++/BSA) were added to block exposed plastic surfaces. Following a 2 hour incubation, the assay plates were washed with TBS^+++ using a 96 well plate washer. Logarithmic serial dilution of the test compound and controls were made starting at a stock concentration of […] and using 2 nM biotinylated vitronectin in TBS^+++/BSA as the diluent. This premixing of labeled ligand with test (or control) ligand, and subsequent transfer of 50 μL aliquots to the assay plate was carried out with a CETUS Propette robot; the final concentration of the labeled ligand was 1 nM and the highest concentration of test compound was 1.0×10^−4 M. The competition occurred for two hours after which all wells were washed with a plate washer as before. Affinity purified horseradish peroxidase labeled goat anti-biotin antibody was diluted 1:2000 in TBS^+++/BSA and 125 μL were added to each well. After 45 minutes, the plates were washed and incubated with […] substrate in 100 mM/L citrate buffer, pH 5.0. The plate was read with a microtiter plate reader at a wavelength of 450 nm and when the maximum-binding control wells reached an absorbance of about 1.0, the final A450 were recorded for analysis. The data were analyzed using a macro written for use with the EXCELJ spreadsheet program. The mean, standard deviation, and %CV were determined for duplicate concentrations. The mean A450 values were normalized to the mean of four maximum-binding controls (no competitor added)(B-MAX). The normalized values were subjected to a four parameter curve fit algorithm, [Robard et al., Int.

CC(CC(=O)O)(Cc1nc(CCCc2ccc3c(n2)NCCC3)no1)c1cccnc1 (stereo not drawn) [Example 51, 3-Methyl-3-pyridin-3-yl-4-{3-[3-(5,6,7,8-tetrahydro-[1,8]naphthyridin-2-yl)-propyl]-[1,2,4]oxadiazol-5-yl}-butyric acid]
pIC50 [1]: > 5.00 | HT-29 β-6 Selectivity* (β6/β3) [2]: +++ (Selectivity Ratio >100 +++) | SPRA AIIbB3 Selectivity* IIbIIIa/β3 [3]: +++ (Selectivity Ratio >100 +++)

O=C(O)CC(Cc1nc(CCCc2ccc3c(n2)NCCC3)no1)c1ccccc1 (stereo not drawn) [Example 34, 3-phenyl-4-{3-[3-(5,6,7,8-tetrahydro-1,8-naphthyridin-2-yl)propyl]-1,2,4-oxadiazol-5-yl}butanoic acid trifluoroacetate]
pIC50 [1]: > 5.00 | HT-29 β-6 Selectivity* (β6/β3) [2]: +++ (Selectivity Ratio >100 +++) | SPRA AIIbB3 Selectivity* IIbIIIa/β3 [3]: +++ (Selectivity Ratio >100 +++)

O=C(O)CC1(Cc2nc(CCCCNc3ccccn3)no2)CCCCC1 [Example 37, [1-({3-[4-(pyridin-2-ylamino)butyl]-1,2,4-oxadiazol-5-yl}methyl)cyclohexyl]-acetic acid]
pIC50 [1]: > 5.00 | HT-29 β-6 Selectivity* (β6/β3) [2]: ++ (Selectivity Ratio of 10-100 ++) | SPRA AIIbB3 Selectivity* IIbIIIa/β3 [3]: ++ (Selectivity Ratio of 10-100 ++)

O=C(O)C(F)(F)F.O=C(O)CC(Cc1nc(CCCCNc2ccccn2)no1)c1ccc(F)cc1 (stereo not drawn) [Example 27, 3-(4-fluorophenyl)-4-{3-[4-(pyridin-2-ylamino)butyl]-1,2,4-oxadiazol-5-yl}butanoic acid]
pIC50 [1]: > 5.00 | HT-29 β-6 Selectivity* (β6/β3) [2]: +++ (Selectivity Ratio >100 +++) | SPRA AIIbB3 Selectivity* IIbIIIa/β3 [3]: +++ (Selectivity Ratio >100 +++)

CC(CC(=O)O)(Cc1nc(CCCCNc2ccccn2)no1)c1cccnc1 (stereo not drawn) [Example 57, 3-Methyl-3-pyridin-3-yl-4-{3-[4-(pyridin-2-ylamino)-butyl]-[1,2,4]oxadiazol-5-yl}-butyric acid]
pIC50 [1]: > 5.00 | HT-29 β-6 Selectivity* (β6/β3) [2]: +++ (Selectivity Ratio >100 +++) | SPRA AIIbB3 Selectivity* IIbIIIa/β3 [3]: +++ (Selectivity Ratio >100 +++)

CCC(C)(CC(=O)O)Cc1nc(CCCCNc2ccccn2)no1 (stereo not drawn) [Example 36, 3-methyl-3-({3-[4-(pyridin-2-ylamino)butyl]-1,2,4-oxadiazol-5-yl}methyl)pentanoic acid]
pIC50 [1]: > 5.00 | HT-29 β-6 Selectivity* (β6/β3) [2]: +++ (Selectivity Ratio >100 +++) | SPRA AIIbB3 Selectivity* IIbIIIa/β3 [3]: +++ (Selectivity Ratio >100 +++)

COc1ccc(C(CC(=O)O)Cc2nc(CCCc3ccc4c(n3)NCCC4)no2)cc1.O=C(O)C(F)(F)F (stereo not drawn) [Example 22, 3-(4-methoxyphenyl)-4-{3-[3-(5,6,7,8-tetrahydro-1,8-naphthyridin-2-yl)propyl]-1,2,4-oxadiazol-5-yl}butanoic acid]
pIC50 [1]: > 5.00 | HT-29 β-6 Selectivity* (β6/β3) [2]: +++ (Selectivity Ratio >100 +++) | SPRA AIIbB3 Selectivity* IIbIIIa/β3 [3]: +++ (Selectivity Ratio >100 +++)

O=C(O)C(F)(F)F.O=C(O)CC1(Cc2nc(CCCCNc3ccccn3)no2)CCCC1 [Example 4, [1-({3-[4-(pyridin-2-ylamino)butyl]-1,2,4-oxadiazol-5-yl}methyl)cyclopentyl]-acetic acid]
pIC50 [1]: > 5.00 | HT-29 β-6 Selectivity* (β6/β3) [2]: +++ (Selectivity Ratio >100 +++) | SPRA AIIbB3 Selectivity* IIbIIIa/β3 [3]: ++ (Selectivity Ratio of 10-100 ++)

O=C(O)CCCc1nc(CCCc2ccc3c(n2)NCCC3)no1 [Example 50, 4-{3-[3-(5,6,7,8-Tetrahydro-[1,8]naphthyridin-2-yl)-propyl]-[1,2,4]oxadiazol-5-yl}-butyric acid]
pIC50 [1]: > 5.00 | HT-29 β-6 Selectivity* (β6/β3) [2]: +++ (Selectivity Ratio >100 +++) | SPRA AIIbB3 Selectivity* IIbIIIa/β3 [3]: +++ (Selectivity Ratio >100 +++)

O=C(O)C(F)(F)F.O=C(O)CC(Cc1nc(CCCc2ccc3c(n2)NCCC3)no1)c1cccc(F)c1 (stereo not drawn) [Example 24, 3-(3-fluorophenyl)-4-{3-[3-(5,6,7,8-tetrahydro-1,8-naphthyridin-2-yl)propyl]-1,2,4-oxadiazol-5-yl}butanoic acid]
pIC50 [1]: > 5.00 | HT-29 β-6 Selectivity* (β6/β3) [2]: +++ (Selectivity Ratio >100 +++) | SPRA AIIbB3 Selectivity* IIbIIIa/β3 [3]: +++ (Selectivity Ratio >100 +++)

COc1cccc(C(CC(=O)O)Cc2nc(CCCc3ccc4c(n3)NCCC4)no2)c1.O=C(O)C(F)(F)F (stereo not drawn) [Example 20, 3-(3-methoxyphenyl)-4-{3-[3-(5,6,7,8-tetrahydro-1,8-naphthyridin-2-yl)propyl]-1,2,4-oxadiazol-5-yl}butanoic acid]
pIC50 [1]: > 5.00 | HT-29 β-6 Selectivity* (β6/β3) [2]: +++ (Selectivity Ratio >100 +++) | SPRA AIIbB3 Selectivity* IIbIIIa/β3 [3]: +++ (Selectivity Ratio >100 +++)

O=C(O)C(F)(F)F.O=C(O)CC(Cc1nc(CCCc2ccc3c(n2)NCCC3)no1)c1cnc2ccccc2c1 (stereo not drawn) [Example 18, 3-quinolin-3-yl-4-{3-[3-(5,6,7,8-tetrahydro-1,8-naphthyridin-2-yl)propyl]-1,2,4-oxadiazol-5-yl}butanoic acid]
pIC50 [1]: > 5.00 | HT-29 β-6 Selectivity* (β6/β3) [2]: +++ (Selectivity Ratio >100 +++) | SPRA AIIbB3 Selectivity* IIbIIIa/β3 [3]: +++ (Selectivity Ratio >100 +++)

CC(CC(=O)O)(Cc1nc(CCCCNc2ccccn2)no1)c1ccccc1 (stereo not drawn) [Example 42, 3-methyl-3-phenyl-4-{3-[4-(pyridin-2-ylamino)butyl]-1,2,4-oxadiazol-5-yl}-butanoic acid]
pIC50 [1]: > 5.00 | HT-29 β-6 Selectivity* (β6/β3) [2]: +++ (Selectivity Ratio >100 +++) | SPRA AIIbB3 Selectivity* IIbIIIa/β3 [3]: +++ (Selectivity Ratio >100 +++)

COc1cccc(C(CC(=O)O)Cc2nc(CCCCNc3ccccn3)no2)c1.O=C(O)C(F)(F)F (stereo not drawn) [Example 21, 3-(3-methoxyphenyl)-4-{3-[4-(pyridin-2-ylamino)butyl]-1,2,4-oxadiazol-5-yl}butanoic acid]
pIC50 [1]: > 5.00 | HT-29 β-6 Selectivity* (β6/β3) [2]: +++ (Selectivity Ratio >100 +++) | SPRA AIIbB3 Selectivity* IIbIIIa/β3 [3]: ++ (Selectivity Ratio of 10-100 ++)
